Experimental data as given in PubChem BioAssay AID1745844 (Carcinogenic Potency Database (CPDB), 2022).
The source made the active and inactive calls. No rule for the calls is given here.

Tested on: rodent lifetime carcinogenesis bioassay, tumor incidence TD50
Assay: carcinogenic potency in animals, long-term in vivo studies, CPDB compilation (AID 1745844)
Details: by gavage, site: any site (literature study), lesion: several types, types named in the paper

O=C(C1CCCCC1)N1CC(=O)N2CCc3ccccc3C2C1 (centres undefined)
inactive: TD50 (hamster, strain Syrian Golden, females, dosed 80 weeks, study length 80 weeks) 250 mg/kg/day | carcinogen call (hamster, strain Syrian Golden, males, dosed 80 weeks, study length 80 weeks) negative | carcinogen call (rat, strain Sprague-Dawley, females, dosed 104 weeks, study length 130 weeks) negative | carcinogen call (rat, strain Sprague-Dawley, males, dosed 104 weeks, study length 130 weeks) negative
